Measurements reported in patent publication US6818638B2, “Melvinolin derivatives” (Novartis AG, priority 1999, dated 2004).
pIC50: −log10 of the molar value.

How the values were obtained:
[1] = target: T1, human LFA-1 / human ICAM-1 (Homo sapiens, UniProt P20701); experiment: Cell free assay: binding of soluble human ICAM-1 to immobilized human LFA-1; settings: cell free assay Ai); read-out: IC50, inhibition of adhesion of LFA-1 to ICAM-1
T1 construct: endogenous in cells; ICAM-1-Cκ: made in house in the baculovirus system
T1 sequence (P20701 26-1170): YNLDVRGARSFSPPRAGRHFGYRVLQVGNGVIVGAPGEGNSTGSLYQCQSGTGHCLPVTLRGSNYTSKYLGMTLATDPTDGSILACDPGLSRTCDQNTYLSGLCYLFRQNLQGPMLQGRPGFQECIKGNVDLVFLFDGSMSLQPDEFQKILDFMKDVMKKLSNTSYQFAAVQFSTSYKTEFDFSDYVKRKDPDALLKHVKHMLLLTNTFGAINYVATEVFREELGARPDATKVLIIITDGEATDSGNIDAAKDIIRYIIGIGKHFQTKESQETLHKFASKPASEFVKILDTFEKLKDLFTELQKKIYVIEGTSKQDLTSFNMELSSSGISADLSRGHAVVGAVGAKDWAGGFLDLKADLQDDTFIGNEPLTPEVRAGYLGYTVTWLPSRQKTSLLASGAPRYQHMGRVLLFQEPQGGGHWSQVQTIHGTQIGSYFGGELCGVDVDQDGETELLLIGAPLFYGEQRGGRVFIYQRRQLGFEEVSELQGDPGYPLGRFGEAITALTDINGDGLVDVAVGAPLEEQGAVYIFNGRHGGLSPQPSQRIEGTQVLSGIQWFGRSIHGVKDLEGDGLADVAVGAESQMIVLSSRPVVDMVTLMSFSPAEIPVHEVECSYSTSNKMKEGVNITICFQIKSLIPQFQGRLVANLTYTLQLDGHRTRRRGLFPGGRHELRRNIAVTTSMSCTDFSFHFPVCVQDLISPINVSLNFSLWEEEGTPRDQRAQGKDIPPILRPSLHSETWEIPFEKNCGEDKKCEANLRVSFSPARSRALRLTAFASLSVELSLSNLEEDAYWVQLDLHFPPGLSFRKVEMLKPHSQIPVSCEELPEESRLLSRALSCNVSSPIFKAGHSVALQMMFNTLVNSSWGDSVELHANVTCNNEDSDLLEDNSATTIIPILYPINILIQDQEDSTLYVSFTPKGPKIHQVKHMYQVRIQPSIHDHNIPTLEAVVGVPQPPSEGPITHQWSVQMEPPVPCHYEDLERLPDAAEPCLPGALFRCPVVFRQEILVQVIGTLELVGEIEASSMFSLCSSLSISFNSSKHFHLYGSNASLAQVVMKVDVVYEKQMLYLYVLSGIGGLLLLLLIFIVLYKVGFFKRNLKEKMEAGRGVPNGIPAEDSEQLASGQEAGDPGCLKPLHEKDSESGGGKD
T1 sequence (P05107 23-769 partner): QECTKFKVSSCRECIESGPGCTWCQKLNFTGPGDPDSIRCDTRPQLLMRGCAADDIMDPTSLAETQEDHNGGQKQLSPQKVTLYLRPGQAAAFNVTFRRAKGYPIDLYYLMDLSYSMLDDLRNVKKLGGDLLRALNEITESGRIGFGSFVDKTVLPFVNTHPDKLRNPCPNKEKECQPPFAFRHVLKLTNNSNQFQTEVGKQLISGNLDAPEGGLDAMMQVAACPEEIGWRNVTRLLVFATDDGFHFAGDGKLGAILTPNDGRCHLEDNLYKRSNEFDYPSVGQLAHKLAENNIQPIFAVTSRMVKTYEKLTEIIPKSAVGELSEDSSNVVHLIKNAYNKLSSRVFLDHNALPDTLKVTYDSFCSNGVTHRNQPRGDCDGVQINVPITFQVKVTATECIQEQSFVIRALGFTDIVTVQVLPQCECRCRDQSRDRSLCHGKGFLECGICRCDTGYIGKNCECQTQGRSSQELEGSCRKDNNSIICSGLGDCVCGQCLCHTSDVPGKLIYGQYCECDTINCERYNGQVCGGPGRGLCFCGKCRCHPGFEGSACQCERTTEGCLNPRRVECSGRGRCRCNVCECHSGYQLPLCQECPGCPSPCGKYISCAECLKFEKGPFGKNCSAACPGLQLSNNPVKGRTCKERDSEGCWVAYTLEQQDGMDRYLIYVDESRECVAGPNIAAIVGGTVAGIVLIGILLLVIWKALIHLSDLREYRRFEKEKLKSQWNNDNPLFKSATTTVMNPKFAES
Protocol: The assay measures the binding of soluble human ICAM-1 to Immobilized human LFA-1 is purified from JY cells, a human lymphoblastoid B cell-line, by immunoaffinity chromatography as described by Dustin et al. (J. Immunol. 148, 2654-2663, 1992). ICAM-1 mouse Cκ fusion protein (ICAM-1) is produced using the baculovirus system as described by Weitz-Schmidt et al. (Anal. Biochem.238,184-190, 1996).
Purified LFA-1 is diluted 1:20 in phosphate buffered saline (PBS) containing 2 mM MgCl2, pH 7.4 and coated onto microtitre plates (Nunc) at 37° C. for 3h. Plates are blocked with 1% heat-treated BSA in PBS for 2 hours at 37° C. followed by a washing step using PBS, 2 mM MgCl2, 1% fetal calf serum, pH 7.4 (assay buffer). Compounds dissolved at 10 mM in DMSO are diluted in assay buffer and added to the plates. Biotinylated recombinant ICAM-1 in assay buffer (6 μg/ml) is added and allowed to bind at 37° C. for one hour. After incubation, wells are washed with assay buffer. Streptavidin-peroxidase diluted 1:5000 in assay buffer is added and incubated for 45 min at 37° C. Plates are then washed with assay buffer and 2.2′-azino-bis(3-ethylbenzothiazoline-6 sulfonic acid) diammonium salt substrate solution is added to each well. The reaction is stopped after 20 min and bound ICAM-1 is determined by measuring the optical density at 405 nm in a microplate reader.
In this assay, compounds of formula I inhibit adhesion of LFA-1 to ICAM-1 with an IC50≦30 μM, preferably 0.05 to 30 μM.

[2] = system: Peripheral blood mononuclear cells (PBMC); experiment: Human Mixed Lymphocyte Reaction (MLR); assay type: cell-based; settings: 2-way reactions, six days, 3H-thymidine, read-out: IC50, 50% inhibition of cell proliferation in MLR
Protocol: Peripheral blood mononuclear cells (PBMC) are isolated from human buffy coats. In each experiment, PBMC from three different donors (A, B, and C) are set up in three individual 2-way reactions (A-B, A-C, B-C). Cells are cocultured for six days and proliferation is determined by pulsing the cells with ^3H-thymidine. The concentration of compounds of formula I which results in 50% inhibition of cell proliferation (IC50) is calculated.

[3] = system: thioglycollate induced neutrophil migration; experiment: Murine Thioglycollate Induced Peritonitis; assay type: in vivo, mice; settings: Mus musculus, Neutrophil, po; p.o.; neutrophils in peritoneal lavage after 4 hours; read-out: ED50 in test Bi)
[4] = system: oxazolone-induced allergic contact dermatitis; experiment: Allergic Contact Dermatitis (ACD), oxazolone-sensitized mice; assay type: in vivo
Protocol: Groups of oxazolone-sensitized mice are challenged with 10 μl of 0.2 or 2.0% oxazolone on the inner surface of the right to eliciate ACD. The low concentration of oxazolone is used for testing compounds on systemic activity whereas the high concentration is applied for topical testing. The unchallenged left ears serve as normal controls and dermatitis is evaluated from the individual differences in pinnal weight, which is taken as a measure of increase in inflammatory swelling 24 h after the challenge. Dermatitis is evaluated in test- and for comparison in control groups. The test groups are treated with the test compounds either orally (twice, 2 h and immediately before challenge), subcutaneously (immediately before challenge) or topically (30 min after challenge at the site of elicitation of the ACD); the controls are treated similarly with the vehicles alone. For oral and subcutaneous administration the compounds are administered in an oil in water emulsion, for topical administration the compounds are prepared in a mixture of ethanol, acetone and dimethylacetamide. The data of the test- and the vehicle-treated control groups are statistically analysed by ANOVA followed by Dunnet T-test (normal distribution or data) or by H and U-test, respectively. […]

SMILES | pIC50 [1] | pIC50 [2] | ED50 [3] [µg/kg] | inhibiting effect in ACD ([4]; p.o. at a dose of 2×3 mg/kg) [%] | inhibition of inflammatory swelling in ACD ([4]; 2x 1 mg/kg p.o.) [%]
CC[C@H](C)C(=O)O[C@H]1C[C@@H](C)C=C2C=C[C@H](C)[C@H](CC[C@@H]3C[C@H](CC(=O)NC)N(Cc4ccc(O)c(OC)c4)C(=O)O3)[C@H]21 [Ex. 2] | 7.30 | 6.70 | 0.1 | 41 | –
CC[C@H](C)C(=O)O[C@H]1C[C@@H](C)C=C2C=C[C@H](C)[C@H](CC[C@H]3C[C@@H](O)CC(=O)N3Cc3ccc4c(CO)c(OC)ccc4c3)[C@H]21 [Ex. 34, (S)2-Methyl-butyric acid (1S,3R,7S,8S,8aR)-8-{2-[(2S,4R)4-hydroxy-1-(5-hydroxymethyl-6-methoxy-naphthalen-2-ylmethyl)-6-oxo-piperidin-2-yl]-ethyl}-3,7-dimethyl-1,2,3,7,8,8a-hexahydro-naphthalen-1-yl ester] | 6.72 | – | – | – | 41
CC[C@H](C)C(=O)O[C@H]1C[C@@H](C)C[C@@H]2CC[C@H](C)[C@H](CC[C@@H](O)C[C@@H](O)CC(=O)NCc3ccc(OC)c(OC)c3)[C@H]21 [compound 28, (S)-2-Methyl-butyric acid (S)-(3S,4aS,7S,8S,8aS)-8-[(3R,5)6-(3,4-dimethoxy-benzylcarbamoyl)-3,5-dihydroxy-hexyl]-3,7-dimethyl-decahydro-naphthalen-1-yl ester] | 6.10 | – | – | – | –
